# Activity calls are given as the source filed them. The calls are words filed in the database; no cut-off is given here.
# Tests used:
# MC-38 [1] = assay: Induction of ROS production in mouse MC38 cells assessed as increase in intracellular ROS level measured after 48 hrs by flow cytometry; assay type: functional, cell-based
# MC-38 [2] = assay: Induction of mitochondrial membrane damage in mouse MC38 cells assessed as decrease in JC-1 aggregation by measuring red fluorescence at 1 uM measured after 48 hrs (reference value: 96.70%); assay type: functional; parameters: scale not given: the % may be the effect or the level left
# MC-38 [3] = assay: Induction of mitochondrial membrane damage in mouse MC38 cells assessed as decrease in JC-1 aggregation by measuring red fluorescence at 8 uM measured after 48 hrs (reference value: 96.70%); assay type: functional; parameters: scale not given: the % may be the effect or the level left
# MC-38 [4] = assay: Induction of mitochondrial membrane damage in mouse MC38 cells assessed as increase in JC-1 monomers by measuring green fluorescence at 2 uM measured after 48 hrs (reference value: 3.13%); assay type: functional
# MC-38 [5] = assay: Induction of PD-L1 expression in mouse MC38 cells measured after 24 hrs incubation by immunofluorescence staining analysis; assay type: functional, cell-based; conditions: dose 1-4 µM
# MC-38 [6] = assay: Induction of PD-L1 expression in mouse MC38 cells in presence of JQ-1 BRD4 inhibitor at 2 uM measured after 24 hrs incubation by Western blot analysis; assay type: functional, cell-based
# MC-38 [7] = assay: Induction of PD-L1 expression in mouse MC38 cells in presence of JQ-1 BRD4 inhibitor at 4 uM measured after 24 hrs incubation by Western blot analysis; assay type: functional, cell-based
# [8] = AUC (0 to t) in Sprague-Dawley rat at 20 mg/kg, iv measured upto 12 hrs by LC-MS/MS analysis; assay type: ADME, organism-based; conditions: in vivo
# [9] = Half life in Sprague-Dawley rat at 20 mg/kg, iv measured upto 12 hrs by LC-MS/MS analysis; assay type: ADME, organism-based; conditions: in vivo
# [10] = Volume of distribution at steady state in Sprague-Dawley rat at 20 mg/kg, iv measured upto 12 hrs by LC-MS/MS analysis; assay type: ADME, organism-based; conditions: in vivo, read-out: Vdss
# [11] = AUC (0 to infinity) in Sprague-Dawley rat at 20 mg/kg, po measured upto 12 hrs by LC-MS/MS analysis; assay type: ADME, organism-based; conditions: in vivo
# [12] = MRT (0 to infinity) in Sprague-Dawley rat at 20 mg/kg, po measured upto 12 hrs by LC-MS/MS analysis; assay type: ADME, organism-based; conditions: in vivo
# MC-38 [13] = assay: In vivo antitumor activity against MC38 cells allografted in C57BL/6 mouse assessed as tumor growth inhibition in presence of NP19 PD-L1 inhibitor at 50 mg/kg, po treated 5 days after cell inoculation 19 th day relative to control; assay type: functional; conditions: MC-38, 360 h, time 15 day, read-out: TGI
# [14] = Toxicity in C57BL/6 mouse allografted with mouse MC38 cells assessed as body weight loss at 50 mg/kg, po treated 5 days after cell inoculation 19 th day; assay type: organism-based; conditions: in vivo, 360 h, time 15 day
# [15] = Toxicity in C57BL/6 mouse allografted with mouse MC38 cells assessed as body weight loss in presence of NP19 PD-L1 inhibitor at 50 mg/kg, po treated 5 days after cell inoculation 19 th day; assay type: organism-based; conditions: in vivo, 360 h, time 15 day
# MC-38 [16] = assay: In vivo antitumor activity against mouse MC38 cells allografted in C57BL/6 mouse assessed as apoptosis in tumor in presence of NP19 PD-L1 inhibitor at 50 mg/kg, po treated 5 days after cell inoculation 19 th day relative to control; assay type: functional, organism-based; conditions: time 15.0 day
# Mus musculus [17] = assay: (§1) Immunomodulatory effect in C57BL/6 mouse allografted mouse MC38 cells assessed as increase in tumor infiltrating lymphocytes by measuring increase in CD8+ T helper cells in mouse blood at 50 mg/kg, po treated 5 days after cell inoculation 19 th day by flow cytometry analysis (reference value: 0.35%); assay type: functional; conditions: time 15 day
# Mus musculus [18] = assay: as §1, with “CD4+” for “CD8+”, “blood in presence of NP19 PD-L1 inhibitor” for “blood”, “0.27%)” for “0.35%)”; assay type: functional; conditions: time 15 day
# Mus musculus [19] = assay: as §1, with “blood in presence of NP19 PD-L1 inhibitor” for “blood”; assay type: functional; conditions: time 15 day
# Mus musculus [20] = assay: as §1, with “lymph nodes” for “blood”, “20.3%)” for “0.35%)”; assay type: functional; conditions: time 15 day
# Mus musculus [21] = assay: as §1, with “CD4+” for “CD8+”, “spleen in presence of NP19 PD-L1 inhibitor” for “blood”, “10.8%)” for “0.35%)”; assay type: functional; conditions: time 15 day
# Mus musculus [22] = assay: as §1, with “tumor in presence of NP19 PD-L1 inhibitor” for “mouse blood”, “2.32%)” for “0.35%)”; assay type: functional; conditions: time 15 day
# Mus musculus [23] = assay: Immunomodulatory effect in C57BL/6 mouse allografted with mouse MC38 cells assessed as increase in tumor infiltrating lymphocytes by measuring increase in CD3+ CD4+ cells at 50 mg/kg, po treated 5 days after cell inoculation 19 th day by flow cytometry analysis; assay type: functional, organism-based; conditions: time 15.0 day
# MC-38 [24] = assay: In vivo antitumor activity against mouse MC38 cells allografted in C57BL/6 mouse assessed as decrease in […] positive cells in tumor in presence of NP19 PD-L1 inhibitor at 50 mg/kg, po treated 5 days after cell inoculation 19 th day by immunofluorescence analysis; assay type: functional, organism-based; conditions: time 15.0 day
# MC-38 [25] = assay: In vivo antitumor activity against mouse MC38 cells allografted in C57BL/6 mouse assessed as increase in Tunel-positive cells in tumor in presence of NP19 PD-L1 inhibitor at 50 mg/kg, po treated 5 days after cell inoculation 19 th day by immunofluorescence analysis; assay type: functional, organism-based; conditions: time 15.0 day
# Mus musculus [26] = assay: Induction of acetylated H3 level in tumor in C57BL/6 mouse allografted with mouse MC38 cells at 50 mg/kg, po treated 5 days after cell inoculation 19 th day by immunofluorescence analysis; assay type: functional, organism-based; conditions: time 15.0 day
# Mus musculus [27] = assay: Induction of PD-L1 expression in tumor in C57BL/6 mouse allografted with mouse MC38 cells at 50 mg/kg, po treated 5 days after cell inoculation 19 th day by immunofluorescence analysis; assay type: functional, organism-based; conditions: time 15.0 day
# Mus musculus [28] = assay: Induction of PD-L1 expression in tumor in C57BL/6 mouse allografted with mouse MC38 cells in presence of NP19 PD-L1 inhibitor at 50 mg/kg, po treated 5 days after cell inoculation 19 th day by immunofluorescence analysis; assay type: functional, organism-based; conditions: time 15.0 day
# [29] = Toxicity in C57BL/6 mouse allografted with mouse MC38 cells assessed as pathological changes in kidney at 50 mg/kg, po treated 5 days after cell inoculation 19 th day by hematoxylin and eosin analysis; assay type: organism-based; conditions: in vivo, 360 h, time 15 day
# [30] = Toxicity in C57BL/6 mouse allografted with mouse MC38 cells assessed as alanine amino transferase (ALT) level in serum at 50 mg/kg, po treated 5 days after cell inoculation 19 th day; assay type: organism-based; conditions: in vivo, 360 h, time 15 day
# [31] = Toxicity in C57BL/6 mouse allografted with mouse MC38 cells assessed as urea nitrogen (BUN) level in serum at 50 mg/kg, po treated 5 days after cell inoculation 19 th day; assay type: organism-based; conditions: in vivo, 360 h, time 15 day
structure (smiles),measurement,setting,value
CCCNNC(=O)c1ccc(CNC(=O)c2cnc(-c3ccc4occc4c3)[nH]2)cc1,Activity,MC-38 [1],Dose-dependent-effect
same,Activity,MC-38 [2],93.57%
same,Activity,MC-38 [3],71.37%
same,Activity,MC-38 [4],8%
same,Activity,MC-38 [5],Dose-dependent-effect
same,Activity,MC-38 [6],Active
same,Activity,MC-38 [7],Active
same,AUC(0-t) at 12 h,[8],1250 ng·h/mL
same,half-life,[9],1 h
same,Vd,[10],2.35 L/kg
same,AUC,[11],1429.8 ng·h/mL
same,MRT inf,[12],4.33 h
same,inhibition in vivo at 50 mg/kg,MC-38 [13],80%
same,Activity,[14],Non-toxic
same,Activity,[15],Non-toxic
same,Activity,MC-38 [16],Active
same,Activity,Mus musculus [17],0.56%
same,Activity,Mus musculus [18],0.98%
same,Activity,Mus musculus [19],0.83%
same,Activity,Mus musculus [20],29.6%
same,Activity,Mus musculus [21],11.9%
same,Activity,Mus musculus [22],7.83%
same,Activity,Mus musculus [23],Active
same,Activity,MC-38 [24],Active
same,Activity,MC-38 [25],Active
same,Activity,Mus musculus [26],Active
same,Activity,Mus musculus [27],Active
same,Activity,Mus musculus [28],Active
same,Activity,[29],Non-toxic
same,Activity,[30],Non-toxic
same,Activity,[31],Non-toxic

# — ChEMBL document CHEMBL6121046, “Discovery of Novel Hydrazide-Based HDAC3 Inhibitors as Epigenetic Immunomodulators for Cancer Immunotherapy” (J Med Chem, 2025)
